In patent publication US8399480B2, “Hydroxymethyl pyrrolidines as beta 3 adrenergic receptor agonists” (Merck Sharp & Dohme Corp., priority 2008, dated 2013):

molecular target: T1, human β3 adrenergic receptor (Homo sapiens, UniProt P13945); assay: Functional assay: cAMP production (LANCE TR-FRET) in CHO cells stably transfected with cloned β3 adrenergic receptor; format: cell-based; conditions: Table 4; human β3 functional activity; read-out: Human β Binding
T1 construct: expressed in transfected cells; host or cells: Chinese hamster ovary (CHO) cells, stably transfected
Procedure, shortened: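 Agonist-stimulated cAMP in CHO cells stably expressing human β3 receptor, 6,000 cells per well in HBSS/HEPES/0.1% BSA with 0.6 mM IBMX, 30 min at room temperature. LANCE TR-FRET readout converted to cAMP via standard curve; maximal stimulation defined with isoproterenol.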

T1 sequence (P13945 whole entry): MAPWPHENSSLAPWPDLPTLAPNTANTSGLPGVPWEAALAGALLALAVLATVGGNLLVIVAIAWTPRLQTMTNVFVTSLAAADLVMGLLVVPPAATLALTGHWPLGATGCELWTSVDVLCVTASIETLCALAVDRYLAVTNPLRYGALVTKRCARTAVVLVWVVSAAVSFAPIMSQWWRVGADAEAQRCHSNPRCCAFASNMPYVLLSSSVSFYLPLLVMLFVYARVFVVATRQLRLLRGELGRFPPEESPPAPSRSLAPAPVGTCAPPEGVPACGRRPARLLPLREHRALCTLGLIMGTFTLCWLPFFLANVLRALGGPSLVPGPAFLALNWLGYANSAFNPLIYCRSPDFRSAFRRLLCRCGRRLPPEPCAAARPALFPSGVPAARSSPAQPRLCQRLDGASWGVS

EC50 [µM]	Structure (SMILES)
0.011 to 0.1	O=C(Nc1ccc(C[C@@H]2CC[C@H]([C@H](O)c3ccccc3)N2)cc1)C1CCCN1c1nc2ccccc2s1 (stereo partly shown) [Example 40]
0.001 to 0.01	O=C(CCc1nc(-c2ccccc2)no1)Nc1ccc(C[C@@H]2CC[C@H]([C@H](O)c3ccccc3)N2)cc1 [Example 47]
0.001 to 0.01	O=C(Nc1ccc(C[C@@H]2CC[C@H]([C@H](O)c3ccccc3)N2)cc1)C1CCCN1c1cccc(Br)c1 (stereo partly shown) [Example 38]
< 0.001	O=C(Cc1nnc(-c2ccccc2)[nH]1)Nc1ccc(C[C@@H]2CC[C@H]([C@H](O)c3ccccc3)N2)cc1 [Example 22]
< 0.001	O=C(Cn1c(=O)[nH]c2ccccc2c1=O)Nc1ccc(C[C@@H]2CC[C@H]([C@H](O)c3ccccc3)N2)cc1 [Example 50]
0.001 to 0.01	O=C(Cn1c(=O)ncc2ccccc21)Nc1ccc(C[C@@H]2CC[C@H]([C@H](O)c3ccccc3)N2)cc1 [Example 17]
0.001 to 0.01	O=C(Cc1c(F)cccc1F)Nc1ccc(C[C@@H]2CC[C@H]([C@H](O)c3ccccc3)N2)cc1 [Example 71]
0.011 to 0.1	O=C(Cc1ccccc1F)Nc1ccc(C[C@@H]2CC[C@H]([C@H](O)c3ccccc3)N2)cc1 [Example 70]
0.011 to 0.1	O=C(Nc1ccc(C[C@@H]2CC[C@H]([C@H](O)c3ccccc3)N2)cc1)c1ccccc1CCn1cccc1 [Example 32]
0.001 to 0.01	O=C(Cn1ccc2ncccc2c1=O)Nc1ccc(C[C@@H]2CC[C@H]([C@H](O)c3ccccc3)N2)cc1 [Example 62]
0.001 to 0.01	O=C(CN1CCCC1=O)Nc1ccc(C[C@@H]2CC[C@H]([C@H](O)c3ccccc3)N2)cc1 [Example 87]
0.011 to 0.1	O=C(Cc1nnc[nH]1)Nc1ccc(C[C@@H]2CC[C@H]([C@H](O)c3ccccc3)N2)cc1 [Example 73]
0.011 to 0.1	O=C(Nc1ccc(C[C@@H]2CC[C@H]([C@H](O)c3ccccc3)N2)cc1)c1ccccc1-c1nnn[nH]1 [Example 13]
0.001 to 0.01	Cc1nn(CC(=O)Nc2ccc(C[C@@H]3CC[C@H]([C@H](O)c4ccccc4)N3)cc2)c(=O)c2ccccc12 [Example 15]
0.101 to 1	O=C(CC1CCCNC1=O)Nc1ccc(C[C@@H]2CC[C@H]([C@H](O)c3ccccc3)N2)cc1 (stereo partly shown) [Example 85]
0.001 to 0.01	Cc1nc(CC(=O)Nc2ccc(C[C@@H]3CC[C@H]([C@H](O)c4ccccc4)N3)cc2)no1 [Example 74]
0.011 to 0.1	O=C(Cn1cncn1)Nc1ccc(C[C@@H]2CC[C@H]([C@H](O)c3ccccc3)N2)cc1 [Example 80]
0.001 to 0.01	O=C(Nc1ccc(C[C@@H]2CC[C@H]([C@H](O)c3ccccc3)N2)cc1)C1CCCN1c1nccs1 (stereo partly shown) [Example 41]
0.001 to 0.01	O=C(Cc1nnc(-c2cscn2)[nH]1)Nc1ccc(C[C@@H]2CC[C@H]([C@H](O)c3ccccc3)N2)cc1 [Example 24]
0.001 to 0.01	O=C(Cn1ncccc1=O)Nc1ccc(C[C@@H]2CC[C@H]([C@H](O)c3ccccc3)N2)cc1 [Example 20]

Structure (SMILES)	EC50 [µM]
O=C(Cn1cccnc1=O)Nc1ccc(C[C@@H]2CC[C@H]([C@H](O)c3ccccc3)N2)cc1 [Example 64]	0.001 to 0.01

same assay, conditions: Table 5; read-out: Human β3 Functional

EC50 [µM]	Structure (SMILES)
0.011 to 0.1	Cc1noc2c1CCC2C(=O)Nc1ccc(C[C@@H]2CC[C@H]([C@H](O)c3ccccc3)N2)cc1 (single isomer, unassigned) [Example 140]
0.101 to 1	O=C(Nc1ccc(C[C@@H]2CC[C@H]([C@H](O)c3ccccc3)N2)cc1)C1CCc2ccc(=O)[nH]c21 (single isomer, unassigned) [Example 135]
0.011 to 0.1	COc1ncncc1C(C)C(=O)Nc1ccc(C[C@@H]2CC[C@H]([C@H](O)c3ccccc3)N2)cc1 (single isomer, unassigned) [Example 213]
< 0.001	CC(C(=O)Nc1ccc(C[C@@H]2CC[C@H]([C@H](O)c3ccccc3)N2)cc1)n1cccnc1=O (single isomer, unassigned) [Example 161]
0.001 to 0.01	Cc1nc2c(s1)CCCC2C(=O)Nc1ccc(C[C@@H]2CC[C@H]([C@H](O)c3ccccc3)N2)cc1 (single isomer, unassigned) [Example 121]
0.001 to 0.01	CCC(C(=O)Nc1ccc(C[C@@H]2CC[C@H]([C@H](O)c3ccccc3)N2)cc1)n1cccn1 (single isomer, unassigned) [Example 218]
0.001 to 0.01	O=C(Nc1ccc(C[C@@H]2CC[C@H]([C@H](O)c3ccccc3)N2)cc1)C1CCn2nnnc21 (single isomer, unassigned) [Example 130]
0.011 to 0.1	O=C(Nc1ccc(C[C@@H]2CC[C@H]([C@H](O)c3ccccc3)N2)cc1)C1CCCc2ccccc21 (single isomer, unassigned) [Example 112]
0.011 to 0.1	O=C(Nc1ccc(C[C@@H]2CC[C@H]([C@H](O)c3ccccc3)N2)cc1)C1CCc2cn[nH]c21 (single isomer, unassigned) [Example 137]
< 0.001	Cc1nc2c(s1)CCC2C(=O)Nc1ccc(C[C@@H]2CC[C@H]([C@H](O)c3ccccc3)N2)cc1 (single isomer, unassigned) [Example 119]
0.101 to 1	O=C(Nc1ccc(C[C@@H]2CC[C@H]([C@H](O)c3ccccc3)N2)cc1)C1CCc2sc(-c3ccc(F)cc3)nc21 (single isomer, unassigned) [Example 123]
0.011 to 0.1	O=C(Nc1ccc(CC2CCC(C(O)c3ccccc3)N2)cc1)C1Cc2ccccc2C1 (stereo not shown) [Example 106]
0.011 to 0.1	O=C(Nc1ccc(C[C@@H]2CC[C@H]([C@H](O)c3ccccc3)N2)cc1)C1CCc2ccccc21 (single isomer, unassigned) [Example 110]
0.101 to 1	O=C(Nc1ccc(C[C@@H]2CC[C@H]([C@H](O)c3ccccc3)N2)cc1)C1CCc2ccccc21 (single isomer, unassigned) [Example 111]
0.001 to 0.01	CC(C(=O)Nc1ccc(C[C@@H]2CC[C@H]([C@H](O)c3ccccc3)N2)cc1)n1cncn1 (single isomer, unassigned) [Example 176]
1 to 3	O=C(Nc1ccc(C[C@@H]2CC[C@H]([C@H](O)c3ccccc3)N2)cc1)C1CCc2ccccc2C1 (single isomer, unassigned) [Example 109]
0.001 to 0.01	CC(C(=O)Nc1ccc(C[C@@H]2CC[C@H]([C@H](O)c3ccccc3)N2)cc1)n1nncc1C(N)=O (single isomer, unassigned) [Example 199]
0.001 to 0.01	Cc1nc2c(s1)CCC2C(=O)Nc1ccc(C[C@@H]2CC[C@H]([C@H](O)c3ccccc3)N2)cc1 (single isomer, unassigned) [Example 118]
0.101 to 1	O=C(Nc1ccc(C[C@@H]2CC[C@H]([C@H](O)c3ccccc3)N2)cc1)C1CCc2ccc(=O)[nH]c21 (single isomer, unassigned) [Example 134]
0.001 to 0.01	CC(C(=O)Nc1ccc(C[C@@H]2CC[C@H]([C@H](O)c3ccccc3)N2)cc1)c1ccccn1 (single isomer, unassigned) [Example 205]
0.001 to 0.01	COC(=O)c1cn(C(C)C(=O)Nc2ccc(C[C@@H]3CC[C@H]([C@H](O)c4ccccc4)N3)cc2)nn1 (single isomer, unassigned) [Example 188]

same assay, conditions: Table 8; read-out: Human β3 Functional

EC50 [µM]	Structure (SMILES)
0.001 to 0.01	O=C(NCc1nnc(-c2ccccc2)[nH]1)Nc1ccc(C[C@@H]2CC[C@H]([C@H](O)c3ccccc3)N2)cc1 [Example 255]
0.101 to 1	O=C(NCc1ccccc1F)Nc1ccc(C[C@@H]2CC[C@H]([C@H](O)c3ccccc3)N2)cc1 [Example 254]
0.101 to 1	O=C(Nc1ccc(C[C@@H]2CC[C@H]([C@H](O)c3ccccc3)N2)cc1)N1CCc2cccnc21 [Example 257]
0.101 to 1	CC(NC(=O)Nc1ccc(C[C@@H]2CC[C@H]([C@H](O)c3ccccc3)N2)cc1)c1cscn1 (stereo partly shown) [Example 252]
0.011 to 0.1	Cc1cc(C)nc(CNC(=O)Nc2ccc(C[C@@H]3CC[C@H]([C@H](O)c4ccccc4)N3)cc2)n1 [Example 256]

same assay, conditions: Table 9; read-out: Human β^3 Functional

EC50 [µM]	Structure (SMILES)
0.011 to 0.1	CC(N)C(=O)Nc1ccc(C[C@@H]2CC[C@H]([C@H](O)c3ccccc3)N2)cc1 (stereo partly shown) [Example 270]
< 0.001	CC(NC(=O)c1c(F)cccc1F)C(=O)Nc1ccc(C[C@@H]2CC[C@H]([C@H](O)c3ccccc3)N2)cc1 (stereo partly shown) [Example 267]

same assay, conditions: Table 10; β3AR-cAMP; read-out: Human β3 Functional

EC50 [µM]	Structure (SMILES)
0.001 to 0.01	Cc1nnc(CC(=O)Nc2ccc(C[C@@H]3CC[C@H]([C@H](O)c4cccc(F)c4)N3)cc2)[nH]1 [Example 280]
0.001 to 0.01	O=C(Cn1ncccc1=O)Nc1ccc(C[C@@H]2CC[C@H]([C@H](O)c3cccc(F)c3)N2)cc1 [Example 281]

same assay, conditions: Table 11; read-out: Human β3 Functional

EC50 [µM]	Structure (SMILES)
0.001 to 0.01	O=C(Cn1ncccc1=O)Nc1ccc(C[C@@H]2CC[C@H]([C@H](O)c3ccc(F)cc3)N2)cc1 [Example 287]

same assay, conditions: Table 12; read-out: Human β3 Functional

EC50 [µM]	Structure (SMILES)
< 0.001	Nc1nc2c(s1)CCC2C(=O)Nc1ccc(CC2CCC(C(O)c3ccc(F)c(F)c3)N2)cc1 (single isomer, unassigned) [Example 292]

same assay, conditions: given as a range; cAMP, CHO cells; read-out: human β3 functional activity

EC50 [µM]	Structure (SMILES)
< 0.001	CC(C(=O)Nc1ccc(C[C@@H]2CC[C@H]([C@H](O)c3cccc(F)c3)N2)cc1)c1cscn1 (single isomer, unassigned) [Example 275]
0.011 to 0.1	COc1cccc(NC(=O)Nc2ccc(C[C@@H]3CC[C@H]([C@H](O)c4ccccc4)N3)cc2)c1 [Example 251, N-[4-({(2S,5R)-5-[(R)-hydroxy(phenyl)methyl]pyrrolidin-2-yl}methyl)phenyl]-N′-(3-methoxyphenyl)urea]
0.011 to 0.1	C[C@H](NS(=O)(=O)c1ccc(F)cc1)C(=O)Nc1ccc(C[C@@H]2CC[C@H]([C@H](O)c3ccccc3)N2)cc1 [Example 264, (2S)-2-{[(4-Fluorophenyl)sulfonyl]amino}-N-[4-({(2S,5R)-5-[(R)-hydroxy(phenyl)methyl]pyrrolidin-2-yl}methyl)phenyl]propanamide]

same assay, conditions: human β3 functional activity, shown as ranges; Table 13; read-out: Human β3 Functional

EC50 [µM]	Structure (SMILES)
0.011 to 0.1	CC(C(=O)Nc1ccc(CC2CCC(C(O)c3cccc(Cl)c3)N2)cc1)c1cscn1 (single isomer, unassigned) [Example 303]
0.011 to 0.1	Nc1nc2c(s1)CCC2C(=O)Nc1ccc(CC2CCC(C(O)c3cccc(Cl)c3)N2)cc1 (single isomer, unassigned) [Example 294]
